In patent US20230024096A1, “BIFUNCTIONAL COMPOUNDS FOR THE TREATMENT OF CANCER” (Hoffmann-La Roche Inc., priority 2019, published 2023):

Biological target: T1, SMARCA2 (Homo sapiens, UniProt P51531)
T1 construct: endogenous in cells; host or cells: HT1080 (CRISPR HiBiT knock-in clone, generated in house)
Experiment: SMARCA2 HiBiT degradation assay (cellular)
Assay type: cell-based
Settings: table head names A549; for DC50: 6 h incubation, HiBiT-tagged SMARCA2, luminescence read-out, read-out: HiBit A549 SMARCA2 IP (nM) 6 h; for Emax: A549, 6 h incubation, Emax = amount of residual protein remaining in the cell following compound treatment

T1 sequence (P51531 whole entry): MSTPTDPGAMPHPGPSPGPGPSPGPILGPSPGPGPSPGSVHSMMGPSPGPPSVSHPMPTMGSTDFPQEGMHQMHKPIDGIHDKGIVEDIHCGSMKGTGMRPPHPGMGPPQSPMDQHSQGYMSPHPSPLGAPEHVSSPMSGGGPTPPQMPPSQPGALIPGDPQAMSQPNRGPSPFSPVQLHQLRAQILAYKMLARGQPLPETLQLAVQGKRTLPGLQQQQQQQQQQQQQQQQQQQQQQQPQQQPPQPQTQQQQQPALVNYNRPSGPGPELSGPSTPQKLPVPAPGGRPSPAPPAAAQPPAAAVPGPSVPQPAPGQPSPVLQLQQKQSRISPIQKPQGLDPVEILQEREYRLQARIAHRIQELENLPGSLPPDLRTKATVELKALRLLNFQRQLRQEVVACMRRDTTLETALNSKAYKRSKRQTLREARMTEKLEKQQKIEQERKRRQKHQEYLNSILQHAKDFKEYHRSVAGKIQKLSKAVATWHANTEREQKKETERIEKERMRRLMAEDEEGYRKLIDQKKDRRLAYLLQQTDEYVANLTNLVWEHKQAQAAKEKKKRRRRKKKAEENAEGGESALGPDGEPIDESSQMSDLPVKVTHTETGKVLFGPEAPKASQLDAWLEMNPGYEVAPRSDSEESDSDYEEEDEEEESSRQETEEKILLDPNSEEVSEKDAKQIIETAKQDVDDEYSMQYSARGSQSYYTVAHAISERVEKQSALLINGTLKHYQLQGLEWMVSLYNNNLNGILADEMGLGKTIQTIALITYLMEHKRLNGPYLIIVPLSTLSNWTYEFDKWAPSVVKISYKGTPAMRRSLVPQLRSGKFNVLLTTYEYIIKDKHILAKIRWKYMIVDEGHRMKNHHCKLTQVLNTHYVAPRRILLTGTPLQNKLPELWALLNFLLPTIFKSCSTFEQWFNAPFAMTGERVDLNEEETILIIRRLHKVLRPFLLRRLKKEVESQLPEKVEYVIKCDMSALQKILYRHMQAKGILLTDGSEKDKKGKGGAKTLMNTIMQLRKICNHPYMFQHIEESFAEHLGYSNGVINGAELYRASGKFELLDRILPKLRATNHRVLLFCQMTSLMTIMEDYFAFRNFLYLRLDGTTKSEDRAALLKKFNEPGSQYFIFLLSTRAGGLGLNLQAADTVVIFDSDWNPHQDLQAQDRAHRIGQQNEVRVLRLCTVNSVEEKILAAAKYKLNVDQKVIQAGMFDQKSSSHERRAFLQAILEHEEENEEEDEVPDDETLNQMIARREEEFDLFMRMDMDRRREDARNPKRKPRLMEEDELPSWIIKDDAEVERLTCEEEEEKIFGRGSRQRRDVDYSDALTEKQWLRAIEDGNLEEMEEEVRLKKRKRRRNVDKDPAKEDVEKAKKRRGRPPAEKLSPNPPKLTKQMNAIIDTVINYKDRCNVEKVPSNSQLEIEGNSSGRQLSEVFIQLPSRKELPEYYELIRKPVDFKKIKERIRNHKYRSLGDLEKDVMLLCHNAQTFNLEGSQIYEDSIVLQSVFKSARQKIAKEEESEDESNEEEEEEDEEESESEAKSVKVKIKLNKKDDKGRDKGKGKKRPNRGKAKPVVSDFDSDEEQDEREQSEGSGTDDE

DC50 [nM]	Emax [%]	Structure (SMILES)
70	29	Nc1nnc(-c2ccccc2O)cc1N1CCC(C(=O)N2CC3(CN(C(=O)CC4CCN(c5ccc6c(c5)C(=O)N(C5CCC(=O)NC5=O)C6=O)CC4)C3)C2)(c2ccccc2)CC1 (centres unmarked) [Example 122, 5-(4-(2-(6-(1-(3-amino-6-(2-hydroxyphenyl)pyridazin-4-yl)-4-phenylpiperidine-4-carbonyl)-2,6-diazaspiro[3.3]heptan-2-yl)-2-oxoethyl)piperidin-1-yl)-2-(2,6-dioxopiperidin-3-yl)isoindoline-1,3-dione]
177	60	Nc1nnc(-c2ccccc2O)cc1OC1CCCN(c2ccc(N3CCN(C(=O)CCCCCCCCn4cc(CNc5cccc6c5C(=O)N(C5CCC(=O)NC5=O)C6)nn4)CC3)cc2)C1 (centres unmarked) [Example 111, 3-[7-[[1-[9-[4-[4-[3-[3-amino-6-(2-hydroxyphenyl)pyridazin-4-yl]oxy-1-piperidyl]phenyl]piperazin-1-yl]-9-oxo-nonyl]triazol-4-yl]methylamino]-1-oxo-isoindolin-2-yl]piperidine-2,6-dione]
55	37	CC(C)(Nc1cccc2c1C(=O)N(C1CCC(=O)NC1=O)C2=O)c1cn(CCCCCCCCCN2CCN(c3ccc(N4CCCC(Oc5cc(-c6ccccc6O)nnc5N)C4)cc3)CC2)nn1 (centres unmarked) [Example 88, 4-[[1-[1-[9-[4-[4-[3-[3-amino-6-(2-hydroxyphenyl)pyridazin-4-yl]oxy-1-piperidyl]phenyl]piperazin-1-yl]nonyl]triazol-4-yl]-1-methyl-ethyl]amino]-2-(2,6-dioxo-3-piperidyl)isoindoline-1,3-dione]
51	65	Nc1nnc(-c2ccccc2O)cc1N1CCC(OCC(=O)NC2CCN(C(=O)C3CCN(c4ccc5c(c4)C(=O)N(C4CCC(=O)NC4=O)C5=O)CC3)CC2)(c2ccccc2)CC1 (centres unmarked) [Example 196, 2-[[1-[3-amino-6-(2-hydroxyphenyl)pyridazin-4-yl]-4-phenyl-4-piperidyl]oxy]-N-[1-[1-[2-(2,6-dioxo-3-piperidyl)-1,3-dioxo-isoindolin-5-yl]piperidine-4-carbonyl]-4-piperidyl]acetamide]
221	57	Nc1nnc(-c2ccccc2O)cc1N1CCC(CNC(=O)CNc2cccc3c2C(=O)N(C2CCC(=O)NC2=O)C3=O)(c2ccccc2)CC1 (centres unmarked) [Example 76, N-((1-(3-amino-6-(2-hydroxyphenyl)pyridazin-4-yl)-4-phenylpiperidin-4-yl)methyl)-2-((2-(2,6-dioxopiperidin-3-yl)-1,3-dioxoisoindolin-4-yl)amino)acetamide]
133	44	Nc1nnc(-c2ccccc2O)cc1N1CC(Oc2ccc(C(=O)N3CCN(C(=O)C4CCN(c5ccc6c(c5)C(=O)N(C5CCC(=O)NC5=O)C6=O)CC4)CC3)c(C(F)(F)F)c2)C1 (racemic) [Example 132, rac-5-[4-[4-[4-[1-[3-amino-6-(2-hydroxyphenyl)pyridazin-4-yl]azetidin-3-yl]oxy-2-(trifluoromethyl)benzoyl]piperazine-1-carbonyl]-1-piperidyl]-2-(2,6-dioxo-3-piperidyl)isoindoline-1,3-dione]
928	69	Nc1nnc(-c2ccccc2O)cc1N1CC(Oc2cccc(C(=O)N3CCN(C(=O)CCCCCCNc4cccc5c4C(=O)N(C4CCC(=O)NC4=O)C5=O)CC3)c2)C1 (centres unmarked) [Example 145, 4-[[7-[4-[3-[1-[3-amino-6-(2-hydroxyphenyl)pyridazin-4-yl]azetidin-3-yl]oxybenzoyl]piperazin-1-yl]-7-oxo-heptyl]amino]-2-(2,6-dioxo-3-piperidyl)isoindoline-1,3-dione]
37	38	Nc1nnc(-c2ccccc2O)cc1N1CCN(c2cccc(CN3CCN(C(=O)COc4ccc5c(c4)C(=O)N(C4CCC(=O)NC4=O)C5=O)CC3)c2)C2(CC2)C1 (centres unmarked) [Example 129, 5-(2-(4-(3-(7-(3-amino-6-(2-hydroxyphenyl)pyridazin-4-yl)-4,7-diazaspiro[2.5]octan-4-yl)benzyl)piperazin-1-yl)-2-oxoethoxy)-2-(2,6-dioxopiperidin-3-yl)isoindoline-1,3-dione]
109	48	Nc1nnc(-c2ccccc2O)cc1N1CCC(NC(=O)CN2CCC(c3ccc(OC4CCC(=O)NC4=O)cc3)CC2)(c2ccccc2)CC1 (centres unmarked) [Example 108, N-[1-[3-amino-6-(2-hydroxyphenyl)pyridazin-4-yl]-4-phenyl-4-piperidyl]-2-[4-[4-[(2,6-dioxo-3-piperidyl)oxy]phenyl]-1-piperidyl]acetamide]
23	35	Nc1nnc(-c2ccccc2O)cc1N1CCC(CNC(=O)CCCN2CCC(c3ccc(OC4CCC(=O)NC4=O)cc3)CC2)(c2ccccc2)CC1 (centres unmarked) [Example 78, N-((1-(3-amino-6-(2-hydroxyphenyl)pyridazin-4-yl)-4-phenylpiperidin-4-yl)methyl)-4-(4-(4-((2,6-dioxopiperidin-3-yl)oxy)phenyl)piperidin-1-yl)butanamide]

Continued, compound first:

Structure (SMILES)	DC50 [nM]	Emax [%]
Nc1nnc(-c2ccccc2O)cc1N1CC2CCC(C1)N2c1cccc(OCCN2CCN(C(=O)C3CC4(C3)CN(c3ccc5c(c3)C(=O)N(C3CCC(=O)NC3=O)C5=O)C4)CC2)c1 (racemic) [Example 61, rac-5-[6-[4-[2-[3-[3-[3-amino-6-(2-hydroxyphenyl)pyridazin-4-yl]-3,8-diazabicyclo[3.2.1]octan-8-yl]phenoxy]ethyl]piperazine-1-carbonyl]-2-azaspiro[3.3]heptan-2-yl]-2-(2,6-dioxo-3-piperidyl)isoindoline-1,3-dione]	100	53
Nc1nnc(-c2ccccc2O)cc1N1CCC(CNC(=O)CCNc2cccc3c2C(=O)N(C2CCC(=O)NC2=O)C3=O)(c2ccccc2)CC1 (centres unmarked) [Example 75, N-((1-(3-amino-6-(2-hydroxyphenyl)pyridazin-4-yl)-4-phenylpiperidin-4-yl)methyl)-3-((2-(2,6-dioxopiperidin-3-yl)-1,3-dioxoisoindolin-4-yl)amino)]	1430	63
Cc1c(C(=O)N2CCN(C(=O)CCC3CCN(c4ccc5c(c4)C(=O)N(C4CCC(=O)NC4=O)C5=O)CC3)CC2)cccc1N1C2CCC1CN(c1cc(-c3ccccc3O)nnc1N)C2 (racemic) [Example 117, rac-5-[4-[3-[4-[3-[3-[3-amino-6-(2-hydroxyphenyl)pyridazin-4-yl]-3,8-diazabicyclo[3.2.1]octan-8-yl]-2-methyl-benzoyl]piperazin-1-yl]-3-oxo-propyl]-1-piperidyl]-2-(2,6-dioxo-3-piperidyl)isoindoline-1,3-dione]	144	50
Nc1nnc(-c2ccccc2O)cc1N1CC2CCC(C1)N2c1cccc(OC2CCC(CC(=O)N3CC4(C3)CN(C(=O)C3CCN(c5ccc6c(c5)C(=O)N(C5CCC(=O)NC5=O)C6=O)CC3)C4)CC2)c1 (racemic) [Example 31, rac-5-[4-[6-[2-[4-[3-[3-[3-amino-6-(2-hydroxyphenyl)pyridazin-4-yl]-3,8-diazabicyclo[3.2.1]octan-8-yl]phenoxy]cyclohexyl]acetyl]-2,6-diazaspiro[3.3]heptane-2-carbonyl]-1-piperidyl]-2-(2,6-dioxo-3-piperidyl)isoindoline-1,3-dione]	383	55
Nc1nnc(-c2ccccc2O)cc1N1CC2CCC(C1)N2c1cccc(CN2CCN(C(=O)C3CN(c4ccc5c(c4)C(=O)N(C4CCC(=O)NC4=O)C5=O)C3)CC2)c1 (racemic) [Example 179, rac-5-[3-[4-[[3-[3-[3-amino-6-(2-hydroxyphenyl)pyridazin-4-yl]-3,8-diazabicyclo[3.2.1]octan-8-yl]phenyl]methyl]piperazine-1-carbonyl]azetidin-1-yl]-2-(2,6-dioxo-3-piperidyl)isoindoline-1,3-dione]	100	39
Nc1nnc(-c2ccccc2O)cc1N1CCC2(CC1)CN(C(=O)CCCCCCCCCCCn1cc(CNc3cccc4c3C(=O)N(C3CCC(=O)NC3=O)C4=O)nn1)CCO2 (centres unmarked) [Example 7, 4-[[1-[12-[9-[3-amino-6-(2-hydroxyphenyl)pyridazin-4-yl]-1-oxa-4,9-diazaspiro[5.5]undecan-4-yl]-12-oxo-dodecyl]triazol-4-yl]methylamino]-2-(2,6-dioxo-3-piperidyl)isoindoline-1,3-dione]	423	42
Nc1nnc(-c2ccccc2O)cc1N1CC2CCC(C1)N2c1cccc(OCCN2CCN(C(=O)CNC(=O)C3CCN(c4ccc5c(c4)C(=O)N(C4CCC(=O)NC4=O)C5=O)CC3)CC2)c1 (racemic) [Example 141, rac-N-[2-[4-[2-[3-[3-[3-amino-6-(2-hydroxyphenyl)pyridazin-4-yl]-3,8-diazabicyclo[3.2.1]octan-8-yl]phenoxy]ethyl]piperazin-1-yl]-2-oxo-ethyl]-1-[2-(2,6-dioxo-3-piperidyl)-1,3-dioxo-isoindolin-5-yl]piperidine-4-carboxamide]	9	19
Cc1c(C(=O)N2CCN(C(=O)C3CCN(c4ccc5c(c4)C(=O)N(C4CCC(=O)NC4=O)C5=O)CC3)CC2)cccc1N1C2CCC1CN(c1cc(-c3ccccc3O)nnc1N)C2 (racemic) [Example 116, rac-5-[4-[4-[3-[3-[3-amino-6-(2-hydroxyphenyl)pyridazin-4-yl]-3,8-diazabicyclo[3.2.1]octan-8-yl]-2-methyl-benzoyl]piperazine-1-carbonyl]-1-piperidyl]-2-(2,6-dioxo-3-piperidyl)isoindoline-1,3-dione]	58	32
CN(c1cccc2c1C(=O)N(C1CCC(=O)NC1=O)C2=O)C1CCN(C(=O)CCC(=O)N2CCN(CCOc3cccc(N4C5CCC4CN(c4cc(-c6ccccc6O)nnc4N)C5)c3)CC2)CC1 (racemic) [Example 21, rac-4-[[1-[4-[4-[2-[3-[3-[3-amino-6-(2-hydroxyphenyl)pyridazin-4-yl]-3,8-diazabicyclo[3.2.1]octan-8-yl]phenoxy]ethyl]piperazin-1-yl]-4-oxo-butanoyl]-4-piperidyl]-methyl-amino]-2-(2,6-dioxo-3-piperidyl)isoindoline-1,3-dione]	118	29
